Earlier results, collected in patent US20070281927A1, “Anti-inflammatory and analgesic compositions and related methods” (priority 2006, published 2007).

Columns and labels:
[1] = not given; remark: listed apart in the source

- solubility in acidic or neutral mediums (acidic or neutral mediums): low solubility
- solubility at the acidic pH range of the upper gastrointestinal tract (acidic pH range of the upper gastrointestinal tract): poorly soluble
- solubility in water (water): practically insoluble
- time to maximum plasma concentration ([1]; after oral administration, many individuals): ≥ 5 h
- time of second meloxicam concentration peak ([1]; post-dose, suggests gastrointestinal recirculation): twelve to fourteen
- bioavailability ([1]; single 30 mg oral dose compared to 30 mg intravenous bolus injection): 89%
SMILES: Cc1cnc(NC(=O)C2=C(O)c3ccccc3S(=O)(=O)N2C)s1 [Meloxicam, 4-hydroxy-2-methyl-N-(5-methyl-2-thiazolyl-)-2H-1,2-benzothiazine-3-carboxamide 1,1-dioxide]
